Laboratory results from US20230203471A1, “METHOD AND PLATFORM FOR DISRUPTING INTRACELLULAR MICROTUBULES” (National Tsing Hua University, priority 2021, published 2023).

Columns and labels:
[1] = system: tyrosinated MTs in COS7 cells; assay: Targeting of TagRFP-FRB-A1AY1 and rapamycin-induced recruitment onto A1AY1-bound MTs; assay type: cell-based, African green monkey
Experimental: (§1) The procedures of immunofluorescence staining are as follows. Cells cultured in borosilicate glass Lab-Tek eight-well chambers (Nunc) were fixed in 4% paraformaldehyde (Electron Microscopy Sciences) at room temperature for 15 min. Fixed cells were permeabilized with 0.1% Triton X-100 and then incubated in blocking solution (phosphate-buffered saline with 2% bovine serum albumin) for 30 min at room temperature. To label cytosolic MTs, primary ciliary membrane, and axonemal MTs, cells were incubated for 1 hr at room temperature with mouse antibody against α-tubulin (1:500; Sigma Aldrich, T6199), rabbit antibody against Arl13b (1:500; Proteintech, 17711-1-AP), mouse antibody against glutamylated tubulin (1:100; Adipogen, AG-20B-0020-C100), mouse antibody against acetylated tubulin (1:500; Sigma Aldrich, T7451), rat antibody against tyrosinated tubulin (1:100; Sigma Aldrich, MAB1864), and mouse antibody against detyrosinated tubulin (1:100; MERCK, AB3201) each of which was diluted in blocking solution. Cells were then washed with PBS and incubated for 1 hr with appropriate secondary antibodies (1:1000 dilution; Thermo Fisher) at room temperature.
MTs undergo various post-translational modification (PTMs) for spatiotemporally regulating their properties and functions. The inventors next turned efforts to precisely disrupt MTs with specific PTMs. […]

spastin = biological target: T1, spastin (Mus musculus, UniProt Q9QYY8, K308Q/K309Q/K310Q); assay: Reversal of MT disruption by spastin inhibition and MT regrowth in HeLa cells; assay type: cell-based; details: spastazoline 10 µM added after 28 min rapamycin; dNSpastin3Q-YFP-FKBP and EMTB-CFP-FRB HeLa cells
T1 construct: expressed in transfected cells; host or cells: HeLa (CCL-2)
T1 sequence (Q9QYY8 with tags, fused parts or gaps K308Q/K309Q/K310Q): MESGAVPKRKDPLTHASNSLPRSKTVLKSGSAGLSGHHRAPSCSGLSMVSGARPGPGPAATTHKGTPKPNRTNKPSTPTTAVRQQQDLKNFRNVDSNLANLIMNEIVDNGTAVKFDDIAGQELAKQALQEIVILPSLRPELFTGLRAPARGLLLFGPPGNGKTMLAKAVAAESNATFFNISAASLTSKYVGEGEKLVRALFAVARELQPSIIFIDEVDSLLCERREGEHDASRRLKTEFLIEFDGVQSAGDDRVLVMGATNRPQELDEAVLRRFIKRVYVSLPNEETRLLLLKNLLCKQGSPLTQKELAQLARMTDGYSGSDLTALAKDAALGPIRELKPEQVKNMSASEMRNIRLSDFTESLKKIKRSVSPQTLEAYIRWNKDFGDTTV
Experimental: FIGS. 2S to 2U show inhibition of spastin activity reverses MT disruption. In FIG. 2S, HeLa cells co-transfected with EMTB—CFP—FRB (black) and dNSpastin3Q-YFP-FKBP (green) were pre-treated with rapamycin for 28 min to induce acute MT disassembly; spastazoline (10 µM), a spastin inhibitor, was then added to the cultures to halt the MT disruption system; arrows indicate the centrosome-derived MTs; scale bar, 10 µm. […] Data (red) are shown as the mean ± SD. A Student’s t-test was performed to generate the indicated p-value.
Intriguingly, nascent MTs from the fragments derived from dNspastin3Q-mediated cleavage assembled at a polymerization rate of 0.92 ± 0.04 µm/sec, which was slightly slower than the regrowth rate of 1.17 ± 0.07 µm/sec for MTs from centrosomes (see FIG. 2U). […] In particular, microtubule filaments are composed of microtubule molecules. If they are only disassembled into microtubule molecules and the raw materials are still there, they would have the opportunity to quickly assemble them back. But if the microtubule molecules are degraded and the raw materials are gone, they can’t be quickly reassembled. In summary, rapid recruitment of dNSpastin3Q-YFP-FKBP onto MTs efficiently triggered MT disassembly in living cells upon dimerization induction.

[2] = system: EMTB-CFP-FRB-labeled MTs in HeLa cells; assay: Rapamycin-induced translocation of FKBP-tagged proteins onto EMTB-CFP-FRB-labeled MTs (FRET, live-cell imaging); assay type: cell-based; details: 100 nM rapamycin, FRET signal
Experimental: (§2) The procedures of live-cell imaging are as follows. Live transfected cells cultured on poly(d-lysine)-coated glass coverslips (Hecht Assistent) were treated with either 100 nM rapamycin for rapid induction of protein dimerization and translocation or MT-targeting agents (10 µM nocodazole or 500 µM colchicine) during imaging. Live-cell imaging was conducted on a Nikon T1 inverted fluorescence microscope (Nikon) with a 60× oil objective (Nikon), a Prime camera (Photometrics), and 37° C., 5% CO2 heat stage (Live Cell Instrument). Rapid recruitment of proteins of interest (POIs) was imaged at 5- or 10-sec intervals, whereas the process of MT disruption was imaged at 1-min intervals. Images were obtained using Nikon NIS-Elements AR software and processed with Huygens Deconvolution Software (Scientific Volume Imaging). Image analysis was mainly performed with Nikon NIS-Elements AR software.
FIGS. 1B and 1C show the MT-binding domain of ensconsin-cyan fluorescent protein-FKBP-rapamycin binding domain (EMTB—CFP—FRB) localizes to cytosolic MTs. […] Scale bar, 10 µm. […] Subsequently, the addition of rapamycin to HeLa cells led to the rapid translocation of yellow fluorescent protein-tagged FKBP (YFP—FKBP) onto EMTB—CFP—FRB-labeled MTs as evidenced by an increased FRET (fluorescence resonance energy transfer) signal on MTs (T½ of translocation: 5.73 ± 0.54 sec; FIGS. 1D and 1E). […]

[3] = biological target: TagRFP-FRB-A1AY1 (Artificial Sequence); assay: live-cell imaging, addition of rapamycin
[4] = system: cytosolic MTs in HeLa cells; assay: Immunofluorescence staining of α-tubulin in HeLa cells expressing spastin constructs; assay type: cell-based; details: HeLa cells co-transfected with EMTB-CFP-FRB
Experimental: as §1
Spastin is a MT-cleaving enzyme that is ubiquitous in nearly all eukaryotic cells. Expression of full-length spastin (SpastinFL-YFP; the amino acid sequence of spastin is SEQ ID NO: 1) and truncated spastin without the N-terminal 1-140 amino acids (dNSpastin-YFP) in HeLa cells removed significant amounts of cytosolic MTs, 47.45% and 42.86%, respectively, relative to YFP-transfected control cells (See FIGS. 2A to 2C). This means that both full-length spastin and truncated spastin without N-terminal 1-140 amino acids have the effect on disrupting microtubules. FIGS. 2A to 2C show the microtubule cleavage activity of artificially engineered spastin enzyme. […] The dotted line on the right indicates the periphery of the cell that expresses spastin. […] SpastinFL expressed in cells can disrupt the intracellular microtubules. Making SpastinFL be located in the cytosol, truncated spastin would also disrupt the intracellular microtubules, so it would also be located in the cytosol. […] The truncated spastin is used in the subsequent experiments. […] Compared with the YFP control group, both SpastinFL-YFP and dNSpastrin-YFP can disrupt about 40% of the microtubules. Thus the N-terminal fragment (1-140 amino acids) was dispensable for Spastin-mediated MT severing. […]

[5] = system: intracellular microtubules in HeLa cells; assay: Live-cell imaging of MT disruption (MT filament area) in transfected HeLa cells; assay type: cell-based; details: HeLa cells co-transfected with EMTB-CFP-FRB, upon rapamycin (100 nM) treatment
Experimental: as §2
The procedures of measurement of MT filament area are as follows. The MT filaments in living cells were labeled with EMTB-CFP-FRB and imaged in real time (RAW image). The rolling ball correction was used to remove the cytosol background from the RAW images, which was carried out with the Nikon NIS-Elements AR software. Images were processed to generate the binary MT filament pattern via the Otsu threshold and analyzed by Fiji software.
FIGS. 2D and 2E show rapidly recruiting engineered spastins onto MTs. […] The top three layers are cells that simultaneously express EMTB-CFP-FRB and dNSpastin3Q-YFP-FKBP. The lower three layers are cells that simultaneously express EMTB-CFP-FRB and dNSpastin-YFP-FKBP-C2Lact. The color bar on the right indicates the brightness value represented by the color of the FRET signal. […] Data are shown as the mean ± S.E.M. It was noteworthy that MT disruption triggered by dNSpastin3Q-YFP-FKBP upon rapamycin treatment (T½ = 11.05 ± 1.52 min) was much faster than that of dNSpastin-YFP-FKBP-C2Lact upon rapamycin treatment (T½ = 53.08 ± 8.08 min), and treatment of two common MTAs, nocodazole (10 µM; T½ = 54.02 ± 10.29 min), colchicine (500 µM; T½ = 94.28 ± 8.63 min; see FIGS. 2F to 2J). […] In FIG. 2H, HeLa cells transfected with the indicated constructs were treated with nocodazole (Noc)([…], a type of MTA), colchicine (Col)(500 µM, a type of MTA), or rapamycin (Rapa)(100 nM); scale bar, 10 µm. […] Data are shown as the mean ± S.E.M. Student’s t-tests were performed, with the resulting p-values indicated.

## TagCFP—FKBP: cyan fluorescent protein TagCFP-tagged FKBP [reference compound]
[1]; addition of rapamycin
  T½ of recruitment onto TagRFP-FRB-A1AY1-bound MTs: 1.078 ± 0.268 min

## CC(C)[C@@H]1CN(c2nc(Nc3cc(C(C)(C)C)[nH]n3)c3cc[nH]c3n2)CCN1 [spastazoline, reference compound]
spastin
  effect of spastin inhibitor on rapamycin-mediated MT disruption: swiftly reversed rapamycin-mediated acute MT disruption

## YFP—FKBP: yellow fluorescent protein-tagged FK506-binding protein [reference compound]
[2]
  T½ of translocation from cytosol onto EMTB-CFP-FRB-labeled MTs: 0.0955 ± 0.009 min

## TagCFP, tagged FKBP (TagCFP-FKBP)
[3]
  T½ of recruitment: 1.08 min

## dNSpastin-YFP-FKBP-C2Lact: truncated spastin tagged with YFP-FKBP and plasma membrane-binding sequence C2Lact
[4]; 100 nM rapamycin 1 hr
  MT disruption after rapamycin treatment: robustly disrupted MTs
[4]; 0.1% DMSO
  MT-severing activity before rapamycin treatment: low MT-severing activities
[2]
  T½ of translocation from cytosol onto EMTB-CFP-FRB-labeled MTs: 0.924 ± 0.14 min
[5]
  T½ of MT disruption: 53.08 ± 8.08 min

B1: TagRFP—FRB—A1AY1: A1AY1 (SEQ ID NO:16), targets tyrosinated MTs, tagged with FRB and red fluorescent protein TagRFP (protein)
chain: MVSKGEELIKENMHMKLYMEGTVNNHHFKCTSEGEGKPYEGTQTMRIKVVEGGPLPFAFDILATSFMYGSRTFINHTQGIPDFFKQSFPEGFTWERVTTYEDGGVLTATQDTSLQDGCLIYNVKIRGVNFPSNGPVMQKKTLGWEANTEMLYPADGGLEGRTDMALKLVGGGHLICNFKTTYRSKKPAKNLKMPSVYYVDHRLERIKEADKETYVEQHEVAVARYCDLPSKLGHKLNLYKILWHEMWHEGLEEASRLYFGERNVKGMFEVLEPLHAMMERGPQTLKETSFNQAYGRDLMEAQEWCRKYMKSGNVKDLLQAWDLYYHVFRRISKMATVKFKYKGEEKQVDISKILSVGRYGKLIHFLYDLGGGKAGMGMVSEKDAPKELLQMLEKQKK
[1]; COS7 cells, immunostaining
  targeting of construct to MT subtypes: preferentially targeted to generic MTs and tyrosinated MTs but not to detyrosinated MTs
